Where two headings read alike, the source gives them in different places.
Assays:
A375-C5 = test: Sulforhodamine B (SRB) growth inhibition assay, melanoma cells; assay type: cell-based; details: Homo sapiens, 48 h
Experimental: (§1) A sulforhodamine B (SRB) assay was performed to evaluate the in vitro growth inhibitory activity of all synthesized hybrids, as well as intermediates in the human tumor cell lines of melanoma (A375-C5), breast adenocarcinoma (MCF-7), and colorectal carcinoma (HCT116), as well as on the non-tumor Human Pulmonary Alveolar Epithelial cell line (HPAEpiC). The concentration inducing 50% cell growth inhibition (GI50), was calculated. […] The overall results prompt us to further investigate the mechanism behind the cytotoxic activities of compounds 6, 7, and 13 in colorectal tumor cells. Moreover, in silico studies were performed, aiming to screen for drug-likeness.
(§2) A375-C5 (melanoma) and MCF-7 (breast adenocarcinoma) cell lines were obtained from the European Collection of Cell Culture, UK, and were grown in RPMI-1640 medium (Roswell Park Memorial Institute, Biochrom, Cambridge, UK) with 5% inactivated FBS (fetal bovine serum, Biochrom). HCT-116 (colon adenocarcinoma) cells were grown in DMEM medium (Dulbecco’s Modified Eagle’s, Biochrom) with 5% inactivated FBS. The non-tumor human pulmonary alveolar epithelial cells (HPAEpiC) were obtained from ScienCell Research Laboratories and grown in DMEM medium supplemented with 10% FBS and 1% non-essential amino acids (Sigma-Aldrich Co., Saint Louis, MO, USA). All cell lines were maintained in a humidified incubator (Hera Cell, Heraeus, Hanau, Germany) at 37 °C and with 5% CO2, and cell viability was regularly monitored using the exclusion trypan blue dye.
(§3) A total of 5.0 × 10^4 A375-C5, MCF-7, and HCT-116 cells, or 6.0 × 10^4 HPAEpiC cells were seeded in 96-well plates and incubated at 37 °C and 5% CO2 to allow for cell attachment. After 24 h, cells were treated with two-fold serial dilutions of test compounds (0–150 µM), or with DMSO as the compound solvent. In parallel, cells in a time-zero (T0) plate, without treatment, were fixed with 50% (m/v) trichloroacetic acid (TCA, Merck Millipore, Darmstadt, Germany), for 1 h at 4 °C, and then washed with distilled water and left to dry. Forty-eight hours after compound treatment, cells were fixed with 50% TCA and stained with SRB (Sigma-Aldrich Co., Ltd., Gillingham, UK) for 30 min at room temperature, followed by 5 rounds of washing with 1% (v/v) acetic acid (Merck Milli-pore, Darmstadt, Germany). SRB–protein complexes were then solubilized with […] Tris buffer (Sigma-Aldrich Co., Ltd., Gillingham, UK) for 30 min, and the absorbance was measured at 515 nm in a microplate reader (Biotek Synergy 2, BioTek Instruments, Inc., Winooski, VT, USA). A dose-response curve was obtained for each cell line, and the concentration that caused 50% cell growth inhibition (GI50) was calculated.

HCT116 (HCT116 p53+/+) = test: SRB growth inhibition assay, colorectal carcinoma cells; assay type: cell-based; details: Homo sapiens, HCT-116
Experimental: as §1, §2, §3

MCF-7 = test: SRB growth inhibition assay, breast adenocarcinoma cells; assay type: cell-based; details: Homo sapiens, MCF7, 48 h
Experimental: as §1, §2, §3

HPAEpiC = test: SRB growth inhibition assay, non-tumor pulmonary alveolar epithelial cells; assay type: cell-based; details: Homo sapiens, Epithelial cell, 48 h
Experimental: as §1, §2, §3

[1] = tested on: A375-C5, MCF-7 and HCT116 cell lines; test: SRB growth inhibition, range over the tumor cell lines of Table 1; assay type: cell-based; details: Homo sapiens; SAR discussion, values of Table 1
Experimental: Considering the antiproliferative effects on tumor cells of all the studied compounds (Table 1), some SAR considerations may be undertaken (Figure 2). […] Nevertheless, this effect is not observed for the flavone derivatives 15 and 16. […] Additionally, with the screening of the synthetic intermediates, some conclusions can also be inferred (Figure 2).
as §3

HCT116 cells [2] = test: Apoptosis detection via flow cytometry (Annexin V-FITC/PI); assay type: cell-based, human; details: HCT116, 48 h, vs untreated or DMSO
Experimental: Double labeling with annexin V-FITC and propidium iodide dyes was used to detect cells going through apoptotic events, using a flow cytometer in order to obtain insights into the mechanism by which compounds 6, 7, and 13 generate antiproliferative activity against colorectal carcinoma cells. For that, HCT116 cells were exposed to each compound for 48 h.
To evaluate apoptotic cell death, the “Annexin V-FITC Apoptosis Detection Kit” (eBioscience, Vienna, Austria) was used according to the manufacturer’s instructions. Briefly, 1.2 × 10^5 cells/well were seeded into 6-well plates, and 24 h later, cells were treated with compounds 6, 7, and 13. After 48 h, floating and adherent cells were collected, pelleted via centrifugation (1000 rpm, 5 min), and suspended in binding buffer. Annexin V-FITC was added and incubated for 10 min, protected from light. Cells were washed and resuspended in binding buffer, and 20 μg/mL of propidium iodide (PI) was added. Fluorescence was assessed using the BD Accuri™ C6 Plus flow cytometer (BD Biosciences, Qume Drive, San Jose, CA, USA), and the data were analyzed with the BD Accuri TM C6 Plus software (version 1.0.27.1, San Jose, CA, USA). At least 20,000 events per sample were collected.

p53–MDM2 interaction = molecular target: T1, p53–MDM2 interaction (Homo sapiens, UniProt Q00987); test: Yeast targeted screening assay of p53–MDM2 interaction; details: 10 μM, yeast cell-based assay, data not shown
T1 construct: expressed in transfected cells; host or cells: Saccharomyces cerevisiae strain CG379
T1 sequence (Q00987 whole entry): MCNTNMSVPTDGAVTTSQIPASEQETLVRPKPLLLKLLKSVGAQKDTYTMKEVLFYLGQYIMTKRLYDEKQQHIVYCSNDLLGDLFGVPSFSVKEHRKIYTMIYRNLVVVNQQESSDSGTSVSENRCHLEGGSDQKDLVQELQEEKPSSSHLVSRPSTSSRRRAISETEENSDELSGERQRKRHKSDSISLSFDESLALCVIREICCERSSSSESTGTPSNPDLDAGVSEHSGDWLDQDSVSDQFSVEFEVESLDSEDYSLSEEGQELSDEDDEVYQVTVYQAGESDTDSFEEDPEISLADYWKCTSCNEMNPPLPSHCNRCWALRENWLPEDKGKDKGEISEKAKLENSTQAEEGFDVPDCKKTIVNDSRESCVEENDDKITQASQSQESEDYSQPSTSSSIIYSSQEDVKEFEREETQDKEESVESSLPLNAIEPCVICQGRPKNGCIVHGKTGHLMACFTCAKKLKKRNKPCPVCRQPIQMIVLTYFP
Experimental: However, since CM-M345 (1) has been previously reported as a p53-MDM2 inhibitor by our research group, the effect of 10 μM of compounds 6, 7, and 13 on the p53–MDM2 interaction was analyzed using yeast cell-based assays.
Saccharomyces cerevisiae (strain CG379) expressing human wt p53 alone and combined with human MDM2 were obtained in previous works. For the expression of human proteins (routinely grown in minimal selective medium), cells were diluted to 0.05 OD600 in selective induction medium containing 2% (w/w) galactose, 1% (w/w) raffinose, 0.7% (w/w) yeast nitrogen base without amino acids from Difco (Quilaban, Sintra, Portugal), and all the amino acids required for yeast growth ([…]) except leucine and tryptophan. Yeast cells were incubated at 30 °C under continuous orbital shaking (200 rpm) with 10 µM compounds or 0.1% DMSO only, for approximately 42 h (time required by the control yeast, co-transformed with the empty vectors and incubated with DMSO only, to achieve 0.4 OD600). Yeast growth was analyzed by counting the number of colony-forming units (CFU) after 2 days of incubation at 30 °C on Sabouraud Dextrose Agar from Liofilchem (Frilabo, Porto, Portugal).

HCT116 cells [3] = test: Mitotic arrest / mitotic index by phase-contrast microscopy; assay type: cell-based, human; details: HCT116, 24 h, phase contrast microscopy
Experimental: Disruption of cell cycle progression is considered one of the most common cytotoxic mechanisms of anticancer drugs. Moreover, the antimitotic effect of BP-M345 (2) has been previously reported. Therefore, compounds 6, 7, and 13 were tested for their capability to induce cell cycle arrest. HCT116 cells were exposed for 24 h to the compounds and then analyzed using phase contrast microscopy for morphological changes. Untreated and dimethyl sulfoxide (DMSO; solvent)-treated cells were used as negative controls. Cell exposure to nocodazole, an antimitotic agent, was used as a positive control. […] We thus calculated the mitotic index (MI), and observed a significant increase in MI in 7-treated cells (22.76 ± 4.30%) compared to the untreated (12.68 ± 1.98%) or DMSO-treated (12.81 ± 1.45%) (Figure 4c).
A total of 1.2 × 10^5 HCT-116 cells were grown in six-well dishes and treated for 24 h with 3.26 µM of compound 7. Cells treated with 1 µM nocodazole were used as a positive control for antimitotic activity. Untreated cells and cells treated with DMSO were included to exclude the cytotoxicity of the compound solvent. Mitotic index, and the percentage of mitotic cells over the total cell population were determined via cell-rounding under phase-contrast microscopy from at least ten random microscope fields.
For phase contrast microscopy images, a Nikon TE 2000-U microscope (Nikon, Amsterdam, The Netherlands) with a 10× objective was used, coupled to a DXM1200F digital camera with Nikon ACT-1 software (Melville, NY, USA). For fluorescence images, an Axio Observer Z.1 SD microscope (Carl Zeiss, Germany) was used, coupled to an AxioCam MR3, with the Plan Apochromatic 63×/NA 1.4 objective. The images were processed using ImageJ, version 1.51.

HCT116 p53−/− = test: SRB growth inhibition assay, p53 knocked-out colorectal cells; assay type: cell-based, human
Experimental: as §3

[4] = SRB, 48 h, read-out: GI50 HCT116
[5] = Table 2, 48 h, read-out: GI50 HCT116 p53+/+

SMILES	GI50 (A375-C5) [µM]	GI50 (HCT116 (HCT116 p53+/+); [4]) [µM]	GI50 (MCF-7) [µM]	melting point [°C]	GI50 (HPAEpiC) [µM]	GI50 [1] [µM]	GI50 (HCT116 (HCT116 p53+/+); [5]) [µM]	Apoptosis induction (Annexin V-positive cells) (HCT116 cells [2])	Effect on the p53–MDM2 interaction (reversal of the negative growth effect of MDM2 on p53) (p53–MDM2 interaction)	Accumulation of bright and rounded (mitotic) cells (HCT116 cells [3])	SI, selective index (GI50 of HCT116 p53−/−/GI50 of HCT116 p53+/+) (HCT116 p53−/−)	GI50 (HCT116 p53−/−; Homo sapiens, HCT-116, Table 2, 48 h) [µM]
CCCc1c(OCCNC(=O)c2cc(OC)c(OC)c(OC)c2)ccc2c(=O)cc(-c3cc(OC)c(OC)c(OC)c3)oc12 [Compound 16, 3,4,5-trimethoxy-N-(2-((4-oxo-8-propyl-2-(3,4,5-trimethoxyphenyl)-4H-chromen-7-yl)oxy)ethyl)benzamide]	> 75	28.6 ± 5.05	> 75	196 to 199	> 75	–	–	–	–	–	–	–
CCCc1c(OCC(=O)O)ccc(C(=O)/C=C/c2cc(OC)c(OC)c(OC)c2)c1OCC(=O)O [Compound 12, (E)-2,2’-((2-propyl-4-(3-(3,4,5-trimethoxyphenyl)acryloyl)-1,3-phenylene)bis(oxy))diacetic acid]	> 75	> 75	> 75	212 to 214	> 75	> 75	–	–	–	–	–	–
CCCc1c(OCC(=O)Nc2cc(OC)c(OC)c(OC)c2)ccc2c(=O)cc(-c3cc(OC)c(OC)c(OC)c3)oc12 [Compound 17, 2-((4-oxo-8-Propyl-2-(3,4,5-trimethoxyphenyl)-4H-chromen-7-yl)oxy)-N-(3,4,5-trimethoxyphenyl)acetamide]	> 75	24.7 ± 3.04	> 75	195 to 197	> 75	–	–	–	–	–	–	–
CCCc1c(OCC(=O)O)ccc2c(=O)cc(-c3cc(OC)c(OC)c(OC)c3)oc12 [Compound 18, 2-((4-oxo-8-propyl-2-(3,4,5-trimethoxyphenyl)-4H-chromen-7-yl)oxy)acetic acid]	> 75	> 75	> 75	–	> 75	–	–	–	–	–	–	–
COc1cc([C@@H]2c3cc4c(cc3[C@@H](O[C@@H]3O[C@@H]5CO[C@@H](C)O[C@H]5[C@H](O)[C@H]3O)[C@H]3COC(=O)[C@H]23)OCO4)cc(OC)c1O [Etoposide, reference compound]	–	–	–	–	–	–	0.71	–	–	–	–	–
CCCc1c(OCC(=O)O)ccc(C(=O)/C=C/c2cc(OC)c(OC)c(OC)c2)c1O [Compound 11, (E)-2-(3-hydroxy-2-propyl-4-(3-(3,4,5-trimethoxyphenyl)acryloyl)phenoxy)acetic acid]	29.4 ± 1.05	26.9 ± 1.6	58.3 ± 8.37	200 to 202	> 75	26.9 to 58.3	–	–	–	–	–	–
COc1cccc2c1C(=O)c1c(O)c3c(c(O)c1C2=O)C[C@@](O)(C(=O)CO)C[C@@H]3O[C@H]1C[C@H](N)[C@H](O)[C@H](C)O1 [Doxorubicin, reference compound]	0.028 ± 0.002	0.085 ± 0.008	0.083 ± 0.003	–	0.091 ± 0.013	–	–	–	–	–	–	–
CCCc1c(OCCNC(=O)/C=C/c2cc(OC)c(OC)c(OC)c2)ccc2c(=O)cc(-c3cc(OC)c(OC)c(OC)c3)oc12 [Compound 15, (E)-N-(2-((4-oxo-8-propyl-2-(3,4,5-trimethoxyphenyl)-4H-chromen-7-yl)oxy)ethyl)-3-(3,4,5-trimethoxyphenyl)acrylamide]	> 75	> 75	> 75	198 to 199	> 75	–	–	–	–	–	–	–
CCCc1c(OCC(=O)Nc2cc(OC)c(OC)c(OC)c2)ccc(C(=O)/C=C/c2cc(OC)c(OC)c(OC)c2)c1O [Compound 13, (E)-2-(3-hydroxy-2-propyl-4-(3-(3,4,5-trimethoxyphenyl)acryloyl)phenoxy)-N-(3,4,5-trimethoxyphenyl)acetamide]	9.37 ± 0.9	2.66 ± 0.87	18.8 ± 3.46	–	10.8 ± 0.23	–	2.66 ± 0.87	induces apoptotic tumor cell death	none of the tested compounds significantly reversed the negative inhibitory growth effect of MDM2 on p53	not observed	1.54	4.1 ± 0.5
CCCc1c(OCCNC(=O)OC(C)(C)C)ccc2c(=O)cc(-c3cc(OC)c(OC)c(OC)c3)oc12 [Compound 14, tert-butyl (2-((4-oxo-8-propyl-2-(3,4,5-trimethoxyphenyl)-4H-chromen-7-yl)oxy)ethyl)carbamate]	> 75	> 75	> 75	191 to 193	> 75	–	–	–	–	–	–	–
CCCc1c(OCCNC(=O)c2cc(OC)c(OC)c(OC)c2)ccc(C(=O)/C=C/c2cc(OC)c(OC)c(OC)c2)c1O [Compound 8, (E)-N-(2-(3-hydroxy-2-propyl-4-(3-(3,4,5-trimethoxyphenyl)acryloyl)phenoxy)ethyl)-3,4,5-trimethoxybenzamide]	> 75	13.5 ± 2.46	> 75	201 to 203	> 75	–	–	–	–	–	–	–
